Assay results from US7553864B2, “Compounds for the treatment of inflammatory disorders and microbial diseases” (Schering Corporation, priority 2005, dated 2009).

test system: LpxC enzyme; assay: LpxC enzyme assay (RapidFire high-throughput mass spectrometry); type: biochemical; conditions: concentration 0.10 (unit not given)
Experimental: The standard LpxC assay consists of 0.2 nM LpxC enzyme, 1.0 μM UDP-3-O—(R-3-hydroxymyristoyl)-N-acetylglucosamine, and test compound, in assay buffer and 2% DMSO. Assay buffer is comprised of 25 mM HEPES, pH 7.3, 150 mM NaCl, 2.0 mM DTT, and 0.01% BSA. The enzyme reaction is carried out in a 96-well assay plate, in a final volume of 102 μL. Solutions of test compounds are prepared in 100% DMSO. Reaction additions, in order, are (1) 2.0 μL compound solution, (2) 80 μL of assay buffer, (3) 10 μL of 10 μM UDP-3-O—(R-3-hydroxymyristoyl)-N-acetylglucosamine (in assay buffer) and, (4) 10 μL of LpxC enzyme (20 nM in assay buffer) to initiate the reaction. In positive control reactions, addition (1) has 2.0 μL of 100% DMSO (without compound); these reactions are used as the total signal (TSB) value. Reactions are incubated at room temperature for 60 minutes when 10 μL of 1 N HCl is added to stop the reaction. The plate is shaken by hand for 10 seconds to ensure complete quenching. Assay plates are sealed with foil tape, and stored at −80° C. for 24-48 hr prior to analysis.
The concentrations of substrate and product in the reaction mixtures are determined with BioTrove's proprietary RapidFire™ high-throughput mass spectrometry (HTMS). Assay mixtures are partially purified with reverse phase chromatography, where they are washed with water containing 5 mM ammonium formate and eluted onto the mass spectrometer in 80% acetonitrile, 20% water, and 5 mM ammonium formate. The mass spectrometry peak areas of the substrate and product are measured to determine the concentration of these analytes. The assay signal is the percentage of substrate that is converted to product. Percent inhibition, % I, in test samples is determined from the following equation: […]

| Structure (SMILES) | LpxC enzyme assay rating (% inhibition at indicated concentrations) |
| --- | --- |
| CCC(C)c1ccc(NC(=O)[C@H](O)[C@@H](O)C(=O)NC)cc1 (some centres unmarked) [Compound 34] | C (less than 10% inhibition) |
| CNC(=O)[C@H](O)[C@@H](O)C(=O)N1CCC(c2ccc(C(F)(F)F)cc2)CC1 [Compound 35] | C (less than 10% inhibition) |
| CNC(=O)[C@H](O)[C@@H](O)C(=O)N1CCC(c2ccc3ccccc3c2)CC1 [Compound 36] | C (less than 10% inhibition) |
| CNC(=O)[C@H](O)[C@@H](O)C(=O)N1CCN(c2ccc(-c3ncccn3)cc2)CC1 [Compound 37] | C (less than 10% inhibition) |
| CNC(=O)[C@H](O)[C@@H](O)C(=O)Nc1ccc(N2CCN(C)CC2)cc1 [Compound 38] | C (less than 10% inhibition) |

same assay, conditions: concentration 0.20 (unit not given)

| Structure (SMILES) | LpxC enzyme assay rating (% inhibition at indicated concentrations) |
| --- | --- |
| CCC(C)c1ccc(NC(=O)[C@H](O)[C@@H](O)C(=O)NC)cc1 (some centres unmarked) [Compound 34] | B (10-30% inhibition) |
| CNC(=O)[C@H](O)[C@@H](O)C(=O)N1CCC(c2ccc(C(F)(F)F)cc2)CC1 [Compound 35] | C (less than 10% inhibition) |
| CNC(=O)[C@H](O)[C@@H](O)C(=O)N1CCC(c2ccc3ccccc3c2)CC1 [Compound 36] | C (less than 10% inhibition) |
| CNC(=O)[C@H](O)[C@@H](O)C(=O)N1CCN(c2ccc(-c3ncccn3)cc2)CC1 [Compound 37] | C (less than 10% inhibition) |
| CNC(=O)[C@H](O)[C@@H](O)C(=O)Nc1ccc(N2CCN(C)CC2)cc1 [Compound 38] | C (less than 10% inhibition) |

same assay, conditions: concentration 0.39 (unit not given)

| Structure (SMILES) | LpxC enzyme assay rating (% inhibition at indicated concentrations) |
| --- | --- |
| CCC(C)c1ccc(NC(=O)[C@H](O)[C@@H](O)C(=O)NC)cc1 (some centres unmarked) [Compound 34] | C (less than 10% inhibition) |
| CNC(=O)[C@H](O)[C@@H](O)C(=O)N1CCC(c2ccc(C(F)(F)F)cc2)CC1 [Compound 35] | C (less than 10% inhibition) |
| CNC(=O)[C@H](O)[C@@H](O)C(=O)N1CCC(c2ccc3ccccc3c2)CC1 [Compound 36] | C (less than 10% inhibition) |
| CNC(=O)[C@H](O)[C@@H](O)C(=O)N1CCN(c2ccc(-c3ncccn3)cc2)CC1 [Compound 37] | C (less than 10% inhibition) |
| CNC(=O)[C@H](O)[C@@H](O)C(=O)Nc1ccc(N2CCN(C)CC2)cc1 [Compound 38] | C (less than 10% inhibition) |

same assay, conditions: concentration 0.78 (unit not given)

| Structure (SMILES) | LpxC enzyme assay rating (% inhibition at indicated concentrations) |
| --- | --- |
| CCC(C)c1ccc(NC(=O)[C@H](O)[C@@H](O)C(=O)NC)cc1 (some centres unmarked) [Compound 34] | B (10-30% inhibition) |
| CNC(=O)[C@H](O)[C@@H](O)C(=O)N1CCC(c2ccc(C(F)(F)F)cc2)CC1 [Compound 35] | C (less than 10% inhibition) |
| CNC(=O)[C@H](O)[C@@H](O)C(=O)N1CCC(c2ccc3ccccc3c2)CC1 [Compound 36] | C (less than 10% inhibition) |
| CNC(=O)[C@H](O)[C@@H](O)C(=O)N1CCN(c2ccc(-c3ncccn3)cc2)CC1 [Compound 37] | C (less than 10% inhibition) |
| CNC(=O)[C@H](O)[C@@H](O)C(=O)Nc1ccc(N2CCN(C)CC2)cc1 [Compound 38] | C (less than 10% inhibition) |

same assay, conditions: concentration 1.56 (unit not given)

| Structure (SMILES) | LpxC enzyme assay rating (% inhibition at indicated concentrations) |
| --- | --- |
| CCC(C)c1ccc(NC(=O)[C@H](O)[C@@H](O)C(=O)NC)cc1 (some centres unmarked) [Compound 34] | B (10-30% inhibition) |
| CNC(=O)[C@H](O)[C@@H](O)C(=O)N1CCC(c2ccc(C(F)(F)F)cc2)CC1 [Compound 35] | B (10-30% inhibition) |
| CNC(=O)[C@H](O)[C@@H](O)C(=O)N1CCC(c2ccc3ccccc3c2)CC1 [Compound 36] | C (less than 10% inhibition) |
| CNC(=O)[C@H](O)[C@@H](O)C(=O)N1CCN(c2ccc(-c3ncccn3)cc2)CC1 [Compound 37] | C (less than 10% inhibition) |
| CNC(=O)[C@H](O)[C@@H](O)C(=O)Nc1ccc(N2CCN(C)CC2)cc1 [Compound 38] | C (less than 10% inhibition) |

same assay, conditions: concentration 3.13 (unit not given)

| Structure (SMILES) | LpxC enzyme assay rating (% inhibition at indicated concentrations) |
| --- | --- |
| CCC(C)c1ccc(NC(=O)[C@H](O)[C@@H](O)C(=O)NC)cc1 (some centres unmarked) [Compound 34] | C (less than 10% inhibition) |
| CNC(=O)[C@H](O)[C@@H](O)C(=O)N1CCC(c2ccc(C(F)(F)F)cc2)CC1 [Compound 35] | C (less than 10% inhibition) |
| CNC(=O)[C@H](O)[C@@H](O)C(=O)N1CCC(c2ccc3ccccc3c2)CC1 [Compound 36] | C (less than 10% inhibition) |
| CNC(=O)[C@H](O)[C@@H](O)C(=O)N1CCN(c2ccc(-c3ncccn3)cc2)CC1 [Compound 37] | C (less than 10% inhibition) |
| CNC(=O)[C@H](O)[C@@H](O)C(=O)Nc1ccc(N2CCN(C)CC2)cc1 [Compound 38] | C (less than 10% inhibition) |

same assay, conditions: concentration 6.25 (unit not given)

| Structure (SMILES) | LpxC enzyme assay rating (% inhibition at indicated concentrations) |
| --- | --- |
| CCC(C)c1ccc(NC(=O)[C@H](O)[C@@H](O)C(=O)NC)cc1 (some centres unmarked) [Compound 34] | B (10-30% inhibition) |
| CNC(=O)[C@H](O)[C@@H](O)C(=O)N1CCC(c2ccc(C(F)(F)F)cc2)CC1 [Compound 35] | C (less than 10% inhibition) |
| CNC(=O)[C@H](O)[C@@H](O)C(=O)N1CCC(c2ccc3ccccc3c2)CC1 [Compound 36] | C (less than 10% inhibition) |
| CNC(=O)[C@H](O)[C@@H](O)C(=O)N1CCN(c2ccc(-c3ncccn3)cc2)CC1 [Compound 37] | B (10-30% inhibition) |
| CNC(=O)[C@H](O)[C@@H](O)C(=O)Nc1ccc(N2CCN(C)CC2)cc1 [Compound 38] | C (less than 10% inhibition) |

same assay, conditions: concentration 12.50 (unit not given)

| Structure (SMILES) | LpxC enzyme assay rating (% inhibition at indicated concentrations) |
| --- | --- |
| CCC(C)c1ccc(NC(=O)[C@H](O)[C@@H](O)C(=O)NC)cc1 (some centres unmarked) [Compound 34] | C (less than 10% inhibition) |
| CNC(=O)[C@H](O)[C@@H](O)C(=O)N1CCC(c2ccc(C(F)(F)F)cc2)CC1 [Compound 35] | C (less than 10% inhibition) |
| CNC(=O)[C@H](O)[C@@H](O)C(=O)N1CCC(c2ccc3ccccc3c2)CC1 [Compound 36] | C (less than 10% inhibition) |
| CNC(=O)[C@H](O)[C@@H](O)C(=O)N1CCN(c2ccc(-c3ncccn3)cc2)CC1 [Compound 37] | C (less than 10% inhibition) |
| CNC(=O)[C@H](O)[C@@H](O)C(=O)Nc1ccc(N2CCN(C)CC2)cc1 [Compound 38] | C (less than 10% inhibition) |

same assay, conditions: concentration 25 (unit not given)

| Structure (SMILES) | LpxC enzyme assay rating (% inhibition at indicated concentrations) |
| --- | --- |
| CCC(C)c1ccc(NC(=O)[C@H](O)[C@@H](O)C(=O)NC)cc1 (some centres unmarked) [Compound 34] | B (10-30% inhibition) |
| CNC(=O)[C@H](O)[C@@H](O)C(=O)N1CCC(c2ccc(C(F)(F)F)cc2)CC1 [Compound 35] | C (less than 10% inhibition) |
| CNC(=O)[C@H](O)[C@@H](O)C(=O)N1CCC(c2ccc3ccccc3c2)CC1 [Compound 36] | C (less than 10% inhibition) |
| CNC(=O)[C@H](O)[C@@H](O)C(=O)N1CCN(c2ccc(-c3ncccn3)cc2)CC1 [Compound 37] | B (10-30% inhibition) |
| CNC(=O)[C@H](O)[C@@H](O)C(=O)Nc1ccc(N2CCN(C)CC2)cc1 [Compound 38] | C (less than 10% inhibition) |

same assay, conditions: concentration 50 (unit not given)

| Structure (SMILES) | LpxC enzyme assay rating (% inhibition at indicated concentrations) |
| --- | --- |
| CCC(C)c1ccc(NC(=O)[C@H](O)[C@@H](O)C(=O)NC)cc1 (some centres unmarked) [Compound 34] | B (10-30% inhibition) |
| CNC(=O)[C@H](O)[C@@H](O)C(=O)N1CCC(c2ccc(C(F)(F)F)cc2)CC1 [Compound 35] | B (10-30% inhibition) |
| CNC(=O)[C@H](O)[C@@H](O)C(=O)N1CCC(c2ccc3ccccc3c2)CC1 [Compound 36] | C (less than 10% inhibition) |
| CNC(=O)[C@H](O)[C@@H](O)C(=O)N1CCN(c2ccc(-c3ncccn3)cc2)CC1 [Compound 37] | C (less than 10% inhibition) |
| CNC(=O)[C@H](O)[C@@H](O)C(=O)Nc1ccc(N2CCN(C)CC2)cc1 [Compound 38] | B (10-30% inhibition) |
